“And” between values parts separate entries of the source, which are not always exact repeats. Identical values can stand only once. Records with an inconclusive call do not appear.
System: BDF1 mice, colon carcinoma 38 sc, T/C %
Experiment: NCI In Vivo Anticancer Drug Screen. Data for tumor model Colon Carcinoma 38 (subcutaneous) in B6D2F1 (BDF1) mice
Settings: endpoint: median tumor weight (est.), higher = larger tumour
Method in brief: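 Ratio of survival or tumor size, compound-treated animals relative to vehicle controls, in tumor-bearing mice.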

[1] = dose: 12.5 mg/kg/injection, schedule: Q07DX002 (ip), vehicle: Klucel (hydroxypropylcellulose) (HPC)
[2] = dose: 50.0 mg/kg/injection, schedule: Q07DX002 (ip), vehicle: saline with Tween-80
[3] = dose: 100.0 mg/kg/injection, schedule: Q07DX002 (ip), vehicle: saline with Tween-80
[4] = dose: 25.0 mg/kg/injection, schedule: Q07DX002 (ip), vehicle: Klucel (hydroxypropylcellulose) (HPC)
[5] = dose: 50.0 mg/kg/injection, schedule: Q07DX002 (ip), vehicle: Klucel (hydroxypropylcellulose) (HPC)
[6] = dose: 400.0 mg/kg/injection, schedule: Q07DX002 (ip), vehicle: Klucel (hydroxypropylcellulose) (HPC)
[7] = dose: 50.0 mg/kg/injection, schedule: Q07DX003 (ip), vehicle: saline

Structure (SMILES): C1CCC2[N-]CC3CCCCC3[N-]CC3CCCCC3[N-]CC3CCCCC3[N-]CC2C1.[Cu] (configuration not stated)
- T/C (dose: 1.56 mg/kg/injection, schedule: Q07DX002 (ip), vehicle: Klucel (hydroxypropylcellulose) (HPC)): 93 % of control
- T/C (dose: 1.56 mg/kg/injection, schedule: Q07DX003 (ip), vehicle: Klucel (hydroxypropylcellulose) (HPC)): 97 % of control
- T/C (dose: 3.13 mg/kg/injection, schedule: Q07DX002 (ip), vehicle: Klucel (hydroxypropylcellulose) (HPC)): 81 % of control
- T/C (dose: 6.25 mg/kg/injection, schedule: Q07DX002 (ip), vehicle: Klucel (hydroxypropylcellulose) (HPC)): 91 % of control
- T/C (dose: 6.25 mg/kg/injection, schedule: Q07DX003 (ip), vehicle: Klucel (hydroxypropylcellulose) (HPC)): 100 % of control
- T/C [1]: 97 % of control
- T/C (dose: 12.5 mg/kg/injection, schedule: Q07DX003 (ip), vehicle: Klucel (hydroxypropylcellulose) (HPC)): 95 % of control

Structure (SMILES): COc1ccc(OC)c(/C=C/c2ccnc3ccccc23)c1
- T/C (dose: 12.5 mg/kg/injection, schedule: Q07DX002 (ip), vehicle: saline with Tween-80): 152 % of control
- T/C (dose: 25.0 mg/kg/injection, schedule: Q07DX002 (ip), vehicle: saline with Tween-80): 101 % of control
- T/C [2]: 86 % of control
- T/C [3]: 116 % of control
- T/C (dose: 200.0 mg/kg/injection, schedule: Q07DX002 (ip), vehicle: saline with Tween-80): 111 % of control
- T/C (dose: 400.0 mg/kg/injection, schedule: Q07DX002 (ip), vehicle: saline with Tween-80): 75 % of control

Structure (SMILES): OCC1OC(n2cnc3c(NO)ncnc32)C(O)C1O (configuration not stated)
- T/C [1]: 88 % of control and 96 % of control
- T/C [4]: 89 % of control and 91 % of control
- T/C [5]: 121 % of control and 100 % of control
- T/C (dose: 200.0 mg/kg/injection, schedule: Q07DX002 (ip), vehicle: Klucel (hydroxypropylcellulose) (HPC)): 118 % of control
- T/C [6]: 96 % of control and 106 % of control

Structure (SMILES): CCOC(=O)Nc1cc2c(c(N)n1)N=C(c1ccccc1)CN2
- T/C (dose: 2.5 mg/kg/injection, schedule: Q07DX002 (ip), vehicle: saline with Tween-80): 66 % of control
- T/C (dose: 5.0 mg/kg/injection, schedule: Q07DX002 (ip), vehicle: saline with Tween-80): 73 % of control
- T/C (dose: 10.0 mg/kg/injection, schedule: Q07DX002 (ip), vehicle: saline with Tween-80): 97 % of control

Structure (SMILES): C[Si](C)(C)O/C=C1\CCCCC1=O
- T/C [2]: 73 % of control and 91 % of control
- T/C [3]: 79 % of control and 100 % of control

Structure (SMILES): CC[n+]1ccc(Nc2ccc(NC(=O)c3ccc(C(=O)Nc4ccc(Nc5cc[n+](CC)c(N)n5)cc4)cc3)cc2)nc1N
- T/C (dose: 6.25 mg/kg/injection, schedule: Q07DX003 (ip), vehicle: saline): 89 % of control
- T/C (dose: 6.25 mg/kg/injection, schedule: Q07DX003 (ip), vehicle: suspension in saline): 70 % of control
- T/C (dose: 12.5 mg/kg/injection, schedule: Q07DX003 (ip), vehicle: saline): 55 % of control
- T/C (dose: 25.0 mg/kg/injection, schedule: Q07DX003 (ip), vehicle: saline): 67 % of control
- T/C (dose: 25.0 mg/kg/injection, schedule: Q07DX003 (ip), vehicle: suspension in saline): 123 % of control
- T/C [7]: 67 % of control
- T/C (dose: 50.0 mg/kg/injection, schedule: Q07DX003 (ip), vehicle: suspension in saline): 54 % of control
- T/C (dose: 100.0 mg/kg/injection, schedule: Q07DX003 (ip), vehicle: saline): 56 % of control
- T/C (dose: 100.0 mg/kg/injection, schedule: Q07DX003 (ip), vehicle: suspension in saline): 36 % of control

Structure (SMILES): O=C(O)CC(NC(=O)CP(=O)(O)O)C(=O)O (configuration not stated)
- T/C [7]: 95 % of control
- T/C (dose: 51.8 mg/kg/injection, schedule: Q01DX004 (ip), vehicle: saline): 102 % of control
- T/C (dose: 86.4 mg/kg/injection, schedule: Q01DX004 (ip), vehicle: saline): 75 % of control
- T/C (dose: 119.0 mg/kg/injection, schedule: Q01DX009 (ip), vehicle: saline): 34 % of control
- T/C (dose: 144.0 mg/kg/injection, schedule: Q01DX004 (ip), vehicle: saline): 12 % of control
- T/C (dose: 178.0 mg/kg/injection, schedule: Q01DX009 (ip), vehicle: saline): 12 % of control
- T/C (dose: 180.0 mg/kg/injection, schedule: Q04DX004 (ip), vehicle: saline): 79 % of control
- T/C (dose: 200.0 mg/kg/injection, schedule: Q07DX003 (ip), vehicle: saline): 115 % of control
- T/C (dose: 240.0 mg/kg/injection, schedule: Q01DX004 (ip), vehicle: saline): 9 % of control
- T/C (dose: 300.0 mg/kg/injection, schedule: Q04DX004 (ip), vehicle: saline): 75 % of control
- T/C (dose: 370.0 mg/kg/injection, schedule: Q07DX003 (ip), vehicle: saline): 70 % of control
- T/C (dose: 400.0 mg/kg/injection, schedule: Q07DX003 (ip), vehicle: saline): 75 % of control
- T/C (dose: 500.0 mg/kg/injection, schedule: Q04DX004 (ip), vehicle: saline): 58 % of control
- T/C (dose: 552.0 mg/kg/injection, schedule: Q07DX003 (ip), vehicle: saline): 40 % of control
- T/C (dose: 800.0 mg/kg/injection, schedule: Q07DX003 (ip), vehicle: saline): 21 % of control

Structure (SMILES): Nc1ncnc2c1ncn2C1OC(CO)CC1O (configuration not stated)
- T/C (dose: 75.0 mg/kg/injection, schedule: Q07DX002 (ip), vehicle: Klucel (hydroxypropylcellulose) (HPC)): 110 % of control
- T/C (dose: 150.0 mg/kg/injection, schedule: Q07DX002 (ip), vehicle: Klucel (hydroxypropylcellulose) (HPC)): 88 % of control
- T/C (dose: 300.0 mg/kg/injection, schedule: Q07DX002 (ip), vehicle: Klucel (hydroxypropylcellulose) (HPC)): 54 % of control

Structure (SMILES): CC1=C/C(O)CC(=O)Cc2nc(co2)C(=O)N2CCC=C2C(=O)OC(C(C)C)C(C)/C=C\C(=O)NC/C=C\1 (configuration not stated)
- T/C [5]: 109 % of control
- T/C [6]: 102 % of control
- T/C (dose: 800.0 mg/kg/injection, schedule: Q07DX002 (ip), vehicle: Klucel (hydroxypropylcellulose) (HPC)): 117 % of control

Structure (SMILES): CC[PH+](CC)CC[S-].CC[PH+](CC)CC[S-].[Au+].[Au+]
- T/C (dose: 5.0 mg/kg/injection, schedule: Q07DX002 (ip), vehicle: Klucel (hydroxypropylcellulose) (HPC)): 67 % of control
- T/C (dose: 10.0 mg/kg/injection, schedule: Q07DX002 (ip), vehicle: Klucel (hydroxypropylcellulose) (HPC)): 89 % of control
- T/C (dose: 20.0 mg/kg/injection, schedule: Q07DX002 (ip), vehicle: Klucel (hydroxypropylcellulose) (HPC)): 78 % of control
- T/C (dose: 40.0 mg/kg/injection, schedule: Q07DX002 (ip), vehicle: Klucel (hydroxypropylcellulose) (HPC)): 57 % of control

Structure (SMILES): O=NN(CCCl)C(=O)Oc1cc(Cl)c(Cl)cc1Cl
- T/C [4]: 117 % of control
- T/C [5]: 63 % of control

Structure (SMILES): CC(=O)OC1COC(NC(=O)N(CCCl)N=O)C(OC(C)=O)C1OC(C)=O (configuration not stated)
- T/C (dose: 0.75 mg/kg/injection, schedule: Q07DX002 (ip), vehicle: saline with Tween-80): 92 % of control
- T/C (dose: 1.5 mg/kg/injection, schedule: Q07DX002 (ip), vehicle: saline with Tween-80): 84 % of control
- T/C (dose: 3.0 mg/kg/injection, schedule: Q07DX002 (ip), vehicle: saline with Tween-80): 66 % of control
- T/C (dose: 6.0 mg/kg/injection, schedule: Q07DX002 (ip), vehicle: saline with Tween-80): 92 % of control
- T/C (dose: 12.0 mg/kg/injection, schedule: Q07DX002 (ip), vehicle: saline with Tween-80): 44 % of control

Structure (SMILES): Nc1nc(/C=C(/O)c2ccccc2)c2ncn(C3OC(CO)C(O)C3O)c2n1 (configuration not stated)
- T/C (dose: 12.5 mg/kg/injection, schedule: Q07DX002 (ip), vehicle: distilled water + Tween-80): 100 % of control
- T/C (dose: 12.5 mg/kg/injection, schedule: Q07DX002 (ip), vehicle: saline): 120 % of control
- T/C (dose: 25.0 mg/kg/injection, schedule: Q07DX002 (ip), vehicle: distilled water + Tween-80): 85 % of control
- T/C (dose: 25.0 mg/kg/injection, schedule: Q07DX002 (ip), vehicle: saline): 87 % of control
- T/C (dose: 50.0 mg/kg/injection, schedule: Q07DX002 (ip), vehicle: saline): 89 % of control
- T/C (dose: 100.0 mg/kg/injection, schedule: Q07DX002 (ip), vehicle: distilled water + Tween-80): 110 % of control
- T/C (dose: 100.0 mg/kg/injection, schedule: Q07DX002 (ip), vehicle: saline): 99 % of control
- T/C (dose: 200.0 mg/kg/injection, schedule: Q07DX002 (ip), vehicle: saline): 120 % of control

Reference: PubChem BioAssay AID212 (DTP/NCI, 2004)
